Tests used:
Assay type in all cases: in vivo
[1] = tested on: Diabrotica balteata (Corn Root Worm); experiment: Example B1: Diabrotica balteata (corn root worm), sprayed maize sprouts; conditions: 96 h, application rate 200 ppm, L2 larvae, 4 days after infestation, read-out: control in at least one of the two categories (mortality or growth inhibition)
Protocol: Example B1: Diabrotica balteata (Corn Root Worm)
Maize sprouts placed onto an agar layer in 24-well microtiter plates were treated with aqueous test solutions prepared from 10′000 ppm DMSO stock solutions by spraying. After drying, the plates were infested with L2 larvae (6 to 10 per well). The samples were assessed for mortality and growth inhibition in comparison to untreated samples 4 days after infestation.

[2] = tested on: Euschistus heros (Neotropical Brown Stink Bug); experiment: Example B2: Euschistus heros (neotropical brown stink bug), sprayed soybean leaves; conditions: 120 h, application rate 200 ppm, N2 nymphs, 5 days after infestation, read-out: control in at least one of the two categories (mortality or growth inhibition)
Protocol: Example B2: Euschistus heros (Neotropical Brown Stink Bug)
Soybean leaves on agar in 24-well microtiter plates were sprayed with aqueous test solutions prepared from 10′000 ppm DMSO stock solutions. After drying the leaves were infested with N2 nymphs. The samples were assessed for mortality and growth inhibition in comparison to untreated samples 5 days after infestation.

[3] = tested on: Chilo suppressalis (Striped Rice Stemborer); experiment: Example B4: Chilo suppressalis (striped rice stemborer), artificial diet; conditions: 144 h, application rate 200 ppm, L2 larvae, 6 days after infestation, read-out: control in at least one of the three categories (mortality, anti-feedant or growth inhibition)
Protocol: Example B4: Chilo suppressalis (Striped Rice Stemborer)
24-well microtiter plates with artificial diet were treated with aqueous test solutions prepared from 10′000 ppm DMSO stock solutions by pipetting. After drying, the plates were infested with L2 larvae (6-8 per well). The samples were assessed for mortality, anti-feeding effect, and growth inhibition in comparison to untreated samples 6 days after infestation. Control of Chilo suppressalis by a test sample is given when at least one of the categories mortality, anti-feedant effect, and growth inhibition is higher than the untreated sample.

[4] = tested on: Plutella xylostella (Diamond Back Moth); experiment: Example B5: Plutella xylostella (diamond back moth), artificial diet, 24-well; conditions: 192 h, application rate 200 ppm, eggs, 8 days after infestation, read-out: control in at least one of the two categories (mortality or growth inhibition)
Protocol: Example B5: Plutella xylostella (Diamond Back Moth)
24-well microtiter plates with artificial diet were treated with aqueous test solutions prepared from 10′000 ppm DMSO stock solutions by pipetting. After drying, Plutella eggs were pipetted through a plastic stencil onto a gel blotting paper and the plate was closed with it. The samples were assessed for mortality and growth inhibition in comparison to untreated samples 8 days after infestation.

[5] = tested on: Spodoptera littoralis (Egyptian Cotton Leaf Worm); experiment: Example B9: Spodoptera littoralis (Egyptian cotton leaf worm), sprayed cotton leaf discs; conditions: foliar, 72 h, application rate 200 ppm, L1 larvae, 3 days after infestation, read-out: control in at least one of the three categories (mortality, anto-feedant or growth inhibition)
[6] = tested on: Plutella xylostella (Diamondback Moth); experiment: Example B13: Plutella xylostella (diamondback moth), artificial diet, 96-well; conditions: 216 h, application rate 500 ppm, eggs/L1 larvae, 9 days after infestation
Protocol: Example B13: Plutella xylostella (Diamondback Moth)
96-well microtiter plates containing artificial diet were treated with aqueous test solutions, prepared from 10′000 ppm DMSO stock solutions, by a liquid handling robot. After drying, eggs (˜30 per well) were infested onto a netted lid which was suspended above the diet. The eggs hatch and L1 larvae move down to the diet. The samples were assessed for mortality 9 days after infestation.

[7] = tested on: Myzus persicae (Green Peach Aphid); experiment: Example B12: Myzus persicae (green peach aphid), 96-well sucrose solution; conditions: 120 h, application rate 50 ppm, 5 days after infestation
Source text: Example B12: Myzus persicae (Green Peach Aphid)
Test compounds prepared from 10′000 ppm DMSO stock solutions were applied by a liquid handling robot into 96-well microtiter plates and mixed with a sucrose solution. Parafilm was stretched over the 96-well microtiter plate and a plastic stencil with 96 holes was placed onto the plate. Aphids were sieved into the wells directly onto the Parafilm. The infested plates were closed with a gel blotting card and a second plastic stencil and then turned upside down. The samples were assessed for mortality 5 days after infestation.

[8] = tested on: Spodoptera littoralis (Egyptian Cotton Leaf Worm); experiment: Example B10: Spodoptera littoralis (Egyptian cotton leaf worm), uptake via lettuce roots from agar; conditions: 144 h, test rate 12.5 ppm, eggs, 6 days after infestation, read-out: control in at least one of the three categories (mortality, anti-feedant, or growth inhibition)
Source text: Example B10: Spodoptera Littoralis (Egyptian Cotton Leaf Worm)
Test compounds were applied by pipette from 10′000 ppm DMSO stock solutions into 24-well plates and mixed with agar. Lettuce seeds were placed onto the agar and the multi well plate was closed by another plate which contained also agar. After 7 days the compound was absorbed by the roots and the lettuce grew into the lid plate. The lettuce leaves were then cut off into the lid plate. Spodoptera eggs were pipetted through a plastic stencil onto a humid gel blotting paper and the lid plate was closed with it. The samples were assessed for mortality, anti-feedant effect and growth inhibition in comparison to untreated samples 6 days after infestation.

[9] = tested on: Myzus persicae (Green Peach Aphid); experiment: Example B8: Myzus persicae (green peach aphid), intrinsic activity; conditions: 120 h, test rate 12 ppm, 5 days after infestation
Source text: Example B8: Myzus persicae (Green Peach Aphid): Intrinsic Activity
Test compounds prepared from 10′000 ppm DMSO stock solutions were applied by pipette into 24-well microtiter plates and mixed with sucrose solution. The plates were closed with a stretched Parafilm. A plastic stencil with 24 holes was placed onto the plate and infested pea seedlings were placed directly on the Parafilm. The infested plate was closed with a gel blotting paper and another plastic stencil and then turned upside down. The samples were assessed for mortality 5 days after infestation.

CC(NC(=O)c1cc(C(F)(F)F)cc(C(C)(C)C#N)c1)c1nc(Br)nn1-c1ccc(C#N)cn1 (stereo not shown) [Compound P36, N-[1-[5-bromo-2-(5-cyano-2-pyridyl)-1,2,4-triazol-3-yl]ethyl]-3-(1-cyano-1-methyl-ethyl)-5-(trifluoromethyl)benzamide]
≥ 80%: percent control (mortality or growth inhibition) at 200 ppm [1] | percent control (mortality or growth inhibition) at 200 ppm [2] | percent control (mortality, anti-feedant or growth inhibition) at 200 ppm [3] | percent control (mortality or growth inhibition) at 200 ppm [4] | percent control (mortality, anti-feedant or growth inhibition) at 200 ppm [5] | mortality at 500 ppm [6]

CC(NC(=O)c1cc(C2CC2(F)F)cc(C(F)(F)F)c1)c1nc(Br)nn1-c1ccc(OC(F)F)cn1 (stereo not shown) [Compound P7, N-[1-[5-bromo-2-[5-(difluoromethoxy)-2-pyridyl]-1,2,4-triazol-3-yl]ethyl]-3-(2,2-difluorocyclopropyl)-5-(trifluoromethyl)benzamide]
≥ 80%: percent control (mortality or growth inhibition) at 200 ppm [1] | percent control (mortality, anti-feedant or growth inhibition) at 200 ppm [3] | percent control (mortality or growth inhibition) at 200 ppm [4] | percent control (mortality, anti-feedant or growth inhibition) at 200 ppm [5] | mortality at 50 ppm [7] | mortality at 500 ppm [6]

CC(NC(=O)c1cc(C(F)(F)F)cc(C2(C#N)CC2)c1)c1nc(Br)nn1-c1ccc(C#N)cn1 (stereo not shown) [Compound P1, N-[1-[5-bromo-2-(5-cyano-2-pyridyl)-1,2,4-triazol-3-yl]ethyl]-3-(1-cyanocyclopropyl)-5-(trifluoromethyl)benzamide]
≥ 80%: percent control (mortality or growth inhibition) at 200 ppm [1] | percent control (mortality, anti-feedant or growth inhibition) at 200 ppm [3] | percent control (mortality or growth inhibition) at 200 ppm [4] | percent control (mortality, anti-feedant or growth inhibition) at 200 ppm [5] | percent control (mortality, anti-feedant or growth inhibition) at 12.5 ppm [8]

CC(NC(=O)c1cc(C(F)(F)F)cc(C(C)(C)C#N)c1)c1nc(Br)nn1-c1ccc(OC(F)F)cn1 (stereo not shown) [Compound P37, N-[1-[5-bromo-2-[5-(difluoromethoxy)-2-pyridyl]-1,2,4-triazol-3-yl]ethyl]-3-(1-cyano-1-methyl-ethyl)-5-(trifluoromethyl)benzamide]
≥ 80%: percent control (mortality or growth inhibition) at 200 ppm [1] | percent control (mortality or growth inhibition) at 200 ppm [2] | percent control (mortality, anti-feedant or growth inhibition) at 200 ppm [3] | percent control (mortality or growth inhibition) at 200 ppm [4] | percent control (mortality, anti-feedant or growth inhibition) at 200 ppm [5]

CC(NC(=O)c1cc(C2CC2)nc(C(F)(F)F)c1)c1nc(Br)nn1-c1ncc(OCC(F)F)cn1 (stereo not shown) [Compound P14, N-[1-[5-bromo-2-[5-(2,2-difluoroethoxy)pyrimidin-2-yl]-1,2,4-triazol-3-yl]ethyl]-2-cyclopropyl-6-(trifluoromethyl)pyridine-4-carboxamide]
≥ 80%: percent control (mortality or growth inhibition) at 200 ppm [1] | percent control (mortality, anti-feedant or growth inhibition) at 200 ppm [3] | percent control (mortality or growth inhibition) at 200 ppm [4] | percent control (mortality, anti-feedant or growth inhibition) at 200 ppm [5] | mortality at 50 ppm [7] | mortality at 500 ppm [6]

CC(NC(=O)c1cc(C(F)(F)F)cc(C(C)(C)C#N)c1)c1nc(Br)nn1-c1ncc(OC(F)F)cn1 (stereo not shown) [Compound P35, N-[1-[5-bromo-2-[5-(difluoromethoxy)pyrimidin-2-yl]-1,2,4-triazol-3-yl]ethyl]-3-(1-cyano-1-methyl-ethyl)-5-(trifluoromethyl)benzamide]
≥ 80%: percent control (mortality or growth inhibition) at 200 ppm [1] | percent control (mortality, anti-feedant or growth inhibition) at 200 ppm [3] | percent control (mortality or growth inhibition) at 200 ppm [4] | mortality at 12 ppm [9] | percent control (mortality, anti-feedant or growth inhibition) at 200 ppm [5] | percent control (mortality, anti-feedant or growth inhibition) at 12.5 ppm [8] | mortality at 500 ppm [6]

CC(NC(=O)c1cc(C(F)(F)F)nc(C2(C#N)CC2)c1)c1nc(Br)nn1-c1ncc(OCC(F)F)cn1 (stereo not shown) [Compound P4, N-[1-[5-bromo-2-[5-(2,2-difluoroethoxy)pyrimidin-2-yl]-1,2,4-triazol-3-yl]ethyl]-2-(1-cyanocyclopropyl)-6-(trifluoromethyl)pyridine-4-carboxamide]
≥ 80%: percent control (mortality or growth inhibition) at 200 ppm [1] | percent control (mortality, anti-feedant or growth inhibition) at 200 ppm [3] | percent control (mortality or growth inhibition) at 200 ppm [4] | mortality at 12 ppm [9] | percent control (mortality, anti-feedant or growth inhibition) at 200 ppm [5]

CC(NC(=O)c1cc(C2CC2(F)F)cc(C(F)(F)F)c1)c1nc(Br)nn1-c1ncc(OCC(F)(F)F)cn1 (stereo not shown) [Compound P11, N-[1-[5-bromo-2-[5-(2,2,2-trifluoroethoxy)pyrimidin-2-yl]-1,2,4-triazol-3-yl]ethyl]-3-(2,2-difluorocyclopropyl)-5-(trifluoromethyl)benzamide]
≥ 80%: percent control (mortality or growth inhibition) at 200 ppm [1] | percent control (mortality or growth inhibition) at 200 ppm [2] | percent control (mortality, anti-feedant or growth inhibition) at 200 ppm [3] | percent control (mortality or growth inhibition) at 200 ppm [4] | percent control (mortality, anti-feedant or growth inhibition) at 200 ppm [5] | mortality at 500 ppm [6]

CC(NC(=O)c1cc(C2CC2)cc(C(F)(F)F)c1)c1nc(Br)nn1-c1ncc(OC(F)F)cn1 (stereo not shown) [Compound P26, N-[1-[5-bromo-2-[5-(difluoromethoxy)pyrimidin-2-yl]-1,2,4-triazol-3-yl]ethyl]-3-cyclopropyl-5-(trifluoromethyl)benzamide]
≥ 80%: percent control (mortality or growth inhibition) at 200 ppm [1] | percent control (mortality, anti-feedant or growth inhibition) at 200 ppm [3] | percent control (mortality or growth inhibition) at 200 ppm [4] | percent control (mortality, anti-feedant or growth inhibition) at 200 ppm [5] | mortality at 50 ppm [7] | mortality at 500 ppm [6]

Reference: patent US20220167618A1, “PESTICIDALLY ACTIVE AZOLE-AMIDE COMPOUNDS” (SYNGENTA CROP PROTECTION AG, priority 2019, published 2022)
